Experimental data reported in patent publication US8399403B2, “Chemical linkers and conjugates thereof” (priority 2004, dated 2013).

Columns and labels:
experimental animals = details: cited from earlier work
[1] = in vitro and in experimental animals; cited from earlier work
[2] = Rate of cyclization of 6-membered hydrazine linker in buffer; assay type: physicochemical; details: incubated in buffer at pH 7.4, assessed over time
Description: A duocarmycin analog conjugated to a dimethyl 6-membered hydrazine linker was incubated in buffer at pH 7.4 for 24 hours and the generation of cyclized product resulting from cyclization of the hydrazine linker, thereby releasing free duocarmycin analog, was assessed over time.
A duocarmycin analog conjugated to a gem-dimethyl 6-membered hydrazine linker was incubated in buffer at pH 7.4 and the generation of cyclized product resulting from cyclization of the hydrazine linker, thereby releasing free duocarmycin analog, was assessed over time.

| Compound | toxicity in experimental animals (experimental animals) | antitumor and antimicrobial activity [1] | generation of cyclized product resulting from cyclization of the hydrazine linker (release of free duocarmycin analog) [2] |
| --- | --- | --- | --- |
| COc1c(O)c2c(c3cc(C(=O)N4CCc5c4c(O)c(OC)c4[nH]c(C(=O)N6CC7CC78C6=CC(=O)c6[nH]cc(C)c68)cc54)[nH]c13)CCN2C(N)=O (stereo not shown) [CC-1065] | causes delayed death in experimental animals | potent antitumor and antimicrobial activity |  |
| COC(=O)c1c(C)[nH]c2c(OC(=O)N(C)C(C)(C)C(=O)N(C)N)cc3c(c12)[C@H](CCl)CN3C(=O)c1cc2cc(OC)ccc2o1 |  |  | proceeding to completion within a few minutes |
| COC(=O)c1c(C)[nH]c2c(OC(=O)N(C)CC(=O)N(C)N)cc3c(c12)[C@H](CCl)CN3C(=O)c1cc2cc(OC)ccc2o1 |  |  | Minimal amounts of cyclized product were detected over 24 hours |
